The text below walks through data of patent US20160271251A1, “RADIOLUMINESCENT COMPOUND FOR RADIOTHERAPY AND DEEP PHOTODYNAMIC THERAPY AND DEVICE FOR DEEP PHOTODYNAMIC THERAPY” (SYNCHROTRON SOLEIL, priority 2013, published 2016).

The nature of data set [1]: UV-visible absorption spectrum of photosensitiser. The class given is physicochemical. An excerpt:
(§1) For the acquisition of these spectra, the two molecules are mixed in the same aqueous solvent. The energy of the X-ray radiation is generally comprised between 1 and 20 keV and selected so as to be higher than an absorption threshold of the radioluminescent molecule, so that the radioluminescent molecule absorbs the X-ray radiation of energy and emits a luminescence radiation in the visible domain.

Data set [2] can be described thus: X-ray-excited luminescence (radioluminescence) spectrum. It is filed as physicochemical. To be noted: for emission band of X-ray-excited luminescence: c=177 mM.
Source text: as §1

Turning to `Oc1cccc(-c2c3nc(c(-c4cccc(O)c4)c4ccc([nH]4)c(-c4cccc(O)c4)c4nc(c(-c5cccc(O)c5)c5ccc2[nH]5)CC4)C=C3)c1` [mTHPC, meta-tetrahydroxyphenylchlorine], the “most intense absorption band” value in data set [1] (PEG:EtOH:H2O 3:2:5 v/v, c=0.49 μM) was “around 400 nm”.

As to `[Cl][Eu]([Cl])[Cl]` [EuCl3, europium chloride], the results for the “most intense of the three peaks observed” value in data set [2] (DMSO medium (FIG. 7)) and in data set [2] (aqueous medium (FIG. 2)) were 700 nm and 600 nm, respectively.

As for chlorine e6, the “most intense absorption band” value in data set [1] (PBS pH=7.4, c=0.8 μM) is “around 400 nm”.

Regarding `[Al].c1ccc2c(c1)-c1nc-2nc2[nH]c(nc3nc(nc4[nH]c(n1)c1ccccc41)-c1ccccc1-3)c1ccccc21` [Al(III)Phthalocyanine], the “absorption band superimposed with CeCl3 emission” value in data set [1] (aqueous medium, c=4 μM) was “around 350 nm”.

Take `[Cl][Gd]([Cl])[Cl]` [GdCl3, gadolinium chloride]: the “emission bands/peak of X-ray-excited luminescence” value in data set [2] (DMSO medium, EuCl3 c=96 mM, GdCl3 c=199 mM) was “around 320 nm”.

With `[Cl][Ce]([Cl])[Cl]` [CeCl3, cerium chloride], the “emission band of X-ray-excited luminescence” value is on record as 300-400 nm in data set [2] (PBS pH=7.4) and 300-400 nm in data set [2] (PEG:EtOH:H2O 3:2:5 v/v, X-ray 1-20 keV).
